Columns and labels:
[1] = test system: Sprague-Dawley rats; test: Rat hot plate pain model (acute pain); format: in vivo; conditions: 30 mg/kg intraperitoneal, hydrochloride salt
Protocol: Sprague-Dawley male, mature and unmated rats were placed at hot and cold plate (product model: PE34, US IITC) with constant 53±0.1° C. Mice with painful response such as licking claw, shaking claw or slightly jumping within 10-30 s were selected, and mice which evaded and jumped were abandoned. […] The test compound was freshly prepared on the day of administration. 0.9% NaCl physiological saline solution was prepared as solvent for later use. Appropriate amount of test compound was added into required volume of physiological saline and fully suspended, and the concentration of prepared drug was 1 mg/ml. […] After administration, the latency of heat pain was measured at 0.5 h, 1 h and 2 h after administration. In order to prevent animals from being scalded on the hot plate, the maximum incubation time was set to 30 s. Maximum possible effect (MPE) % was used to evaluate analgesic effect of each compound, i.e., MPE %=[(Post drug latency−baseline latency)/(30−baseline latency)]×100. MPE % at different time points was recorded.

[2] = test system: SH-SY5Y cells; test: Cytotoxicity test (CCK-8), neurotoxicity; format: cell-based; conditions: Homo sapiens, 72 h
Protocol: In this example, hepatotoxicity and neurotoxicity of compound I-1 and S-duloxetine were detected.
HepG-2 and SH-SY5Y cells were placed in 10 cm dish and cultured at 37° C., 5% CO2 in a cell incubator. Trypsin was used to digest and resuspend cells and cells were counted. The cells were transferred to 96-well plate with 8000 cells in a well (100 μl/well), cultured at 37° C., 5% CO2 in a cell incubator for 24 hrs. A serial of gradient concentration dilutions of compound I-1 (prepared in example 2 of the present invention) with 2-fold dilution were prepared, and the system was 100 μL/well. The supernatant of cell culture system in the 96-well plate was removed on the first day, and fresh-prepared drug concentration system was add into culture plate wells (duplicate wells were set). The cells were cultured at 37° C., 5% CO2 in a cell incubator for 72 h. […] Microplate reader was used to measure the absorbance at 450 nm. Data was processed to calculate cytotoxicity, and IC50 was calculated by GraphPad Prism. […]
A (Dosing): the absorbance of wells containing cells, CCK-8 solution and drug solution.
A (control): the absorbance of wells containing medium and CCK-8 solution and without cells.
A (0 Dosing): the absorbance of wells containing cells and CCK-8 solution but without drug solution […]

[3] = test system: ICR mice; test: Mice acetic acid writhing pain model (visceral and inflammatory pain); format: in vivo; conditions: for number of appearance of writhing reactions (visceral pain) within 30 min: 1 h before acetic acid, saline group 49 times
Protocol: Male ICR mice, 22-25 g, were fasted but allowed to drink water freely for 2 h before administration. All ICR mice were weighed and grouped randomly, each group had >10 animals. […] The drug was administrated by gavage based on the weight of mice. 1.5% acetic acid solution (0.1 ml/10 g) was injected intraperitoneally 1 h after administration, and the number of times of visceral pain in each group was observed within 30 min. When concave abdomen, stretched trunk and hind claw, and high buttocks appeared, one number point was recorded. Finally, the number of appearance of the above phenomenon was counted within 30 minutes.

[4] = test system: C57BL/6 mice; test: Mice formalin pain model (acute and inflammatory pain); format: in vivo; conditions: for Licking claw time (s) in phase II (10-60 min): hydrochloride salt, blank vehicle 349.55 ± 43.09
Source text: 150 C57BL/6 mice (male, 9-week aged) were randomly divided into 15 groups, (each group had 10 mice) for the analgesic activity test of 3 compounds in the mice formalin pain model respectively: the compound I-1 group (compound I-1 prepared in Example 2 whose hydrochloride salt was used in the experiment), the S-duloxetine group (its hydrochloride salt was used in the experiment) and the compound C1 group (the compound C1 prepared in Comparative Example 1, whose hydrochloride salt was used in the experiment). Before the start of experiments, the mice were allowed to adapt to the experimental environment for 72 h with free feeding and drinking water. The test drugs were administrated by intraperitoneal injection at a dosage as follows:
Compound I-1 group: blank vehicle (blank saline control), 0.1 mg/kg, 0.5 mg/kg, 1 mg/kg, 5 mg/kg and 10 mg/kg;
S-duloxetine group: blank vehicle (blank saline control), 1 mg/kg, 5 mg/kg, 10 mg/kg and 20 mg/kg;
Compound C1 group: blank vehicle (blank saline control), 0.1 mg/kg, 0.5 mg/kg, 1 mg/kg, 5 mg/kg and 10 mg/kg.
After administration, the mice were placed in a transparent, ventilated plexiglass cylinder for 1 h, and then 20 μl of 4% formalin solution was injected into the left hind plantar of mice of each group by microinjector, claw pain response in mice were real-time recorded by a mini-camera. The time length of licking left claw were used as an indicator of pain response, licking time in 0-10 min (phase I) and 10-60 min (phase II) were observed and recorded, and the statistical analysis was conducted. The half effective dose (ED50) of 3 compounds were calculated: ED50 referred to the dose of the drug which decreased licking time by half as compared with the blank control group. The smaller the ED50 value was, the lower the effective analgesic dose of the compound was and the better the analgesic effect was.

[5] = molecular target: TRPA1 (Mus musculus (Mouse), UniProt Q8BLA8); test: Manual patch clamp test of TRPA1 inhibitory activity; format: cell-based; conditions: FIG. 2
Protocol: The TRPA1 inhibitory activity of compound I-1 was evaluated by manual patch clamp test method.

Chain of TRPA1 (Q8BLA8 whole entry): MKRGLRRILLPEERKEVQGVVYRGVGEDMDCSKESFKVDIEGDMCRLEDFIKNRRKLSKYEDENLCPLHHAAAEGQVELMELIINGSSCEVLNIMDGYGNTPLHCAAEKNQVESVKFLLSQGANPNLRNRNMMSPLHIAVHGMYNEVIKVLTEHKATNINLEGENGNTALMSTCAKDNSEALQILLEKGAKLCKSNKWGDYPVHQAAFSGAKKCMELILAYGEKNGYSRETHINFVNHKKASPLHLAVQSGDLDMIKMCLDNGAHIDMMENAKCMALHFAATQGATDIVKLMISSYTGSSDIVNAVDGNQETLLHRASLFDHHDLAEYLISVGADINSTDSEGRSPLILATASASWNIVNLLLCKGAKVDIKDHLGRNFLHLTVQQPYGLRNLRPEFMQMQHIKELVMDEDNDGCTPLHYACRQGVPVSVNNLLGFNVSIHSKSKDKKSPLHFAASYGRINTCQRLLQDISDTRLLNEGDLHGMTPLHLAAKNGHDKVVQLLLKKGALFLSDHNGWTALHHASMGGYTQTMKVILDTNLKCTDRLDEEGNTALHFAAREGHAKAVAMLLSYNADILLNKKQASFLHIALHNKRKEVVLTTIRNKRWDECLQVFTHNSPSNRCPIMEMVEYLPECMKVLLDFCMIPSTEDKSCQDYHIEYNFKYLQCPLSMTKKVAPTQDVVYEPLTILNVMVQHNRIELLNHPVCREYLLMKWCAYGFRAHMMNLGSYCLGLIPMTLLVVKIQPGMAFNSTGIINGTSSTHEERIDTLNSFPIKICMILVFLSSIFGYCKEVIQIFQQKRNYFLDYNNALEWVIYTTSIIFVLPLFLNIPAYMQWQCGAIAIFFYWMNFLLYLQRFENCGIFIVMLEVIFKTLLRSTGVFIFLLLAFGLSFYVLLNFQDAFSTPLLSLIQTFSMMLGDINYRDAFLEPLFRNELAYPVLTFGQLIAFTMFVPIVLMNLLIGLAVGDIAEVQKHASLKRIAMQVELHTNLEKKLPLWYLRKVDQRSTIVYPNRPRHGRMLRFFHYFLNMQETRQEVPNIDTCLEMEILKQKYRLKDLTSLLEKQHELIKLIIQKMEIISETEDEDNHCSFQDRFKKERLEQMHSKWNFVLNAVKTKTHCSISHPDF

`CNCC[C@@H](Oc1cccc2ccoc12)c1cccs1` [Compound I-1, (R)-3-(benzofuran-7-yloxy)-N-methyl-3-(thiophen-2-yl)propyl-1-amine] gave an MPE % ([1]; 0.5 h after administration) of 14.51 ± 6.87%, an MPE % ([1]; 1 h after administration) of 38.03 ± 5.66% and an MPE % ([1]; 2 h after administration) of 31.92 ± 6.79%. The IC50 [2] was about 101 µM, the “number of appearance of writhing reactions (visceral pain) within 30 min” value ([3]; 5 mg/kg by gavage) was 19 times and the “number of visceral pain lower than the saline control group” value ([3]; 5 mg/kg by gavage, 19 times vs 49 times) was 50%. The “number of appearance of writhing reactions (visceral pain) within 30 min” value ([3]; 10 mg/kg by gavage) was 16 times, the “Licking claw time (s) in phase II (10-60 min)” value (from here on “Licking claw time (s)”) ([4]; 0.1 mg/kg intraperitoneal) was 321.55 ± 47.75 s and the “decrease of licking time in phase II (10-60 min) compared with the blank vehicle” value ([4]; 0.5 mg/kg intraperitoneal) was “more than 50%”. The “Licking claw time (s)” value ([4]; 0.5 mg/kg intraperitoneal) was 161.25 ± 30.83 s, the “Licking claw time (s)” value ([4]; 1 mg/kg intraperitoneal) was 131.28 ± 23.99 s and the “Licking claw time (s)” value ([4]; 5 mg/kg intraperitoneal) was 87.85 ± 25.15 s. The “Licking claw time (s)” value ([4]; 10 mg/kg intraperitoneal) was 99.08 ± 19.73 s, the “ED50 times stronger than S-duloxetine” value ([4]; phase II, mice formalin model) was 30.8 times and the “ED50 times stronger than compound C1” value ([4]; phase II, mice formalin model) was 8.5 times. For the same compound, the IC50 [5] was 0.42 µM.

— US20250042884A1, “3-ARYLOXYL-3-FIVE-MEMBERED HETEROARYL PROPYLAMINE COMPOUND AND USE THEREOF” (Shanghai Leado Pharmatech Co. Ltd., priority 2018, published 2025)
